From publication PMC9737137, “The Mitochondrial Protein MitoNEET as a Probe for the Allostery of Glutamate Dehydrogenase” (Molecules, 2022)
pIC50: −log10 of the molar value.

Columns and labels:
[1] = biological target: T1, glutamate dehydrogenase (GDH) (Bos taurus, UniProt P00366); test: GDH kinetics, NAD(P)H formation at […] nm; percent activation with NADP; type: biochemical
T1 construct: gene GLUD1

[2] = biological target: T1, glutamate dehydrogenase (GDH); test: GDH kinetics, NAD(P)H formation at […] nm; fraction of activity with NAD added first; type: biochemical
[3] = biological target: T1, glutamate dehydrogenase (GDH); test: GDH kinetics, NAD(P)H formation at […] nm; fraction of activity (Figure 1C); type: biochemical
[4] = biological target: T1, glutamate dehydrogenase (GDH); test: GDH kinetics, NAD(P)H formation at […] nm; percent activation (Figure 4B); type: biochemical
[5] = biological target: T1, glutamate dehydrogenase (GDH); test: GDH kinetics, NAD(P)H formation at […] nm; fraction of activity; type: biochemical
[6] = biological target: T2, mitoNEET (Homo sapiens, UniProt Q9NZ45); test: radioligand competition assay (SPA nickel beads); type: binding
T2 construct: gene CISD1
T2 sequence (Q9NZ45 2-108): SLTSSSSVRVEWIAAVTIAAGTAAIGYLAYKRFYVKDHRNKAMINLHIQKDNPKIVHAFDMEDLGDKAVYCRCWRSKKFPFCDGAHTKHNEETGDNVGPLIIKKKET

T1 sequence (P00366 58-558, one chain of several): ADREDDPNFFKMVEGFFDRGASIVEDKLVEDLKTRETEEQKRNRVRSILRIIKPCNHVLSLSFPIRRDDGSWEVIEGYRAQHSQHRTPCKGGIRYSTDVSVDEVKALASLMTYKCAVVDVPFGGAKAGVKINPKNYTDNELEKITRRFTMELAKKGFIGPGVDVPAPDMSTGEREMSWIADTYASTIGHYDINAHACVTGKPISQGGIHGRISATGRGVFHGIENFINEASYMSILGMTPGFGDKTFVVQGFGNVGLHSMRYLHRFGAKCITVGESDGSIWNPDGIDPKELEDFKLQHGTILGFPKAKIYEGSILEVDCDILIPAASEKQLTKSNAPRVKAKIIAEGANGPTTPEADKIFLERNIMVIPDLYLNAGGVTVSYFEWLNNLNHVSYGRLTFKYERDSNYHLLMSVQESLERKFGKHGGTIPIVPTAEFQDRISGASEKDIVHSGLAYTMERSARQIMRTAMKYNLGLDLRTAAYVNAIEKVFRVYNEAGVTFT

Nc1ncnc2c1ncn2[C@@H]1O[C@H](COP(=O)(O)OP(=O)(O)O)[C@@H](O)[C@H]1O [ADP]
% activation [1]: 67 % activation

O=C(O[C@@H]1Cc2c(O)cc(O)cc2O[C@@H]1c1cc(O)c(O)c(O)c1)c1cc(O)c(O)c(O)c1 [EGCG]
GDH kinetics, NAD(P)H formation at 340 nm; fraction of activity with NAD added f [2]: 0.35 ± 0.02 fraction of activity

Nc1nc2c(ncn2[C@@H]2O[C@H](COP(=O)(O)OP(=O)(O)OP(=O)(O)O)[C@@H](O)[C@H]2O)c(=O)[nH]1 [GTP]
GDH kinetics, NAD(P)H formation at 340 nm; fraction of activity (Figure 1C) [3]: under only one assay condition the rescue of GDH activity from GTP inhibition by mitoNEET could be observed

CC(C)C[C@H](N)C(=O)O [leucine]
GDH kinetics, NAD(P)H formation at 340 nm; percent activation (Figure 4B) [4]: addition of mitoNEET after the addition of leucine gave no impact in percent activation over the addition of leucine alone

CCCCCCCCCCCCCCCC(=O)SCCNC(=O)CCNC(=O)[C@H](O)C(C)(C)COP(=O)(O)OP(=O)(O)OC[C@H]1O[C@@H](n2cnc3c(N)ncnc32)[C@H](O)[C@@H]1OP(=O)(O)O [palmitoyl-CoA]
GDH kinetics, NAD(P)H formation at 340 nm; fraction of activity [5]: 0.44 ± 0.04 fraction of activity | pIC50 [6]: 6.52
